In article PMC5361735, “Characterization and mechanisms of anti-influenza virus metabolites isolated from the Vietnamese medicinal plant Polygonum chinense” (BMC Complementary and Alternative Medicine, 2017):

Experiments:
[1] = target: NA activity of influenza virus PR8 (Influenza A virus, UniProt P03468); type: biochemical
[2] = target: NA activity of rgPR8(H275Y) (Influenza A virus, UniProt P03468, H260Y); type: biochemical

Question: What does the source list for `O=C(O)/C=C/c1ccc(O)c(O)c1` [PC8, Caffeic acid]?
Answer: NA inhibitory effect against PR8 [1]: less potent than that of OSV-C; NA inhibitory effect against rgPR8(H275Y) [2]: consistent activity
